Experimental data published in PMC7340254, “Structure-based screening of binding affinities via small-angle X-ray scattering” (IUCrJ, 2020).
Read-outs that look alike come from different tables or passages of the source. Each block holds one molecule with its values, some of them ahead of it.

Experiments:
[1] = target: T1, aspartate/glutamate-binding protein (DEBP) (Escherichia coli, UniProt P37902); assay: SAXS-based ligand titration; parameters: species or system E. coli
T1 construct: made in house; host or cells: E. coli BL21(DE3)
Source text: Their preliminary results have been excluded from this report.

DEBP = target: DEBP; parameters: method as in Clifton & Jackson (2016); settings: ref Clifton & Jackson (2016), read-out: K D (ITC, literature); cited from earlier work
GlnBP = target: GlnBP; parameters: method as in Clifton & Jackson (2016); settings: ref Clifton & Jackson (2016), read-out: K D (ITC, literature); cited from earlier work
HisBP = target: HisBP; parameters: method as in Paul et al. (2016); settings: ref Paul et al. (2016), read-out: K D (ITC, literature); cited from earlier work
[2] = target: T2, histidine-binding protein (HisBP) (Escherichia coli, UniProt P0AEU0); assay: biochemical
Procedure: (§1) Titrations were conducted at fixed protein concentrations to exclude signal-to-noise factors. An initial mass concentration of 2.0 or 4.0 mg ml^−1 was employed in prospective experiments, then scaled to 2.0, 1.0, 0.5 and 0.25 mg ml^−1 in later concentration-variation studies. […] A total of eight beamline experiments were conducted, using the automated sample changing environments available on site, operated in constant-flow mode: three times at ESRF BM29, three at DESY P12, once at Australian Synchrotron SAXS/WAXS and once at Diamond B21. […] Furthermore, experiments at ESRF BM29 and Diamond B21 were carried out on site, while the DESY P12 experiment was carried out by mail-in. For these measurements, samples were prepared by pipetting ligand–protein mixtures onto 96-well plates prior to transport. As for the Australian Synchrotron measurements, apo–HisBP was lyophilized in its final buffer and reconstituted on site using pure H2O and then mixed with the ligands in 96-well plates.
(§2) Buffer-subtracted intensities provided from respective synchrotron pipelines were used as starting points for analysis. […] Thus, an intermediate value of 7.2 nm was fixed for all computations involving D max including V R.
(§3) This was used to assist in locating data points affected by sample handling errors or measurement failures, along with detectable aggregation. The ideal minimum angle after removal of parasitic scattering is 0.1–0.15 nm^−1, although a more conservative cutoff was used to collectively eliminate residual aggregation. The maximum usable q was determined by visual inspection of noise. The final ranges used across all HisBP beamline sessions were: 0.2–2.0 nm^−1 at 20 µM and below, 0.25–2.5 nm^−1 at 40 µM, and 0.3–3 nm^−1 above 80 µM. The q-ranges for DEBP and GlnBP were set to 0.1–2.8 nm^−1.
(§4) A common scattering reference is created per HisBP concentration and per beamline experiment by averaging apo protein replicates after discarding outliers. This reference is used for both V R and χlin computations.
(§5) To fit binding curves against metrics, we consider all titrations conducted per protein concentration per beamline experiment as a single set, after removing data points resulting from aggregation, preparation errors or measurement errors. […] Since the two-state binding curve at constant [R] cannot effectively discriminate between K D values much larger or smaller than [R], fitted K D values are limited to within four orders of magnitude of the receptor concentration (cf. Fig. S1). […] Error bars indicate σ of logK D from the ensemble of replicate predictions. For metrics where uncertainty was not computed (V R and V P), the uncertainty was estimated by single-point removal, where K D was recomputed after removal of each titration point. The σ of the resulting replicates are taken as the σ of logK D. To eliminate cases where the fitting process fails due to ill-constrained parameters, replicates were discarded if the fitted apo–holo differences were >3σ from the mean value of all replicates.

[3] = target: T2, histidine-binding protein (HisBP); assay: biochemical; remark: listed apart in the source
Procedure: All ITC measurements were conducted on a Malvern MicroCal PEAQ ITC at 20°C with stirring at 200 rev min^−1 using the same buffer as in SAXS measurements. The cell was initially loaded with 200 µl of 20 µM protein with an initial ligand concentration of 200 µM in the syringe to quantify His:HisBP binding. This was further adjusted in subsequent runs to resolve weaker interactions as necessary.

[4] = target: T2, histidine-binding protein (HisBP); settings: His:HisBP
Procedure: as §1, §2, §3, §4, §5

[5] = K D fitted to SAXS V R titration curves, AustSynch, 20s exposure, […] 10^13 photons, HisBP 19 µM
[6] = K D fitted to SAXS V R titration curves, AustSynch, 20s exposure, […] 10^13 photons, HisBP […] µM
[7] = K D fitted to SAXS V R titration curves, AustSynch, 20s exposure, […] 10^13 photons, HisBP 76 µM
[8] = K D fitted to SAXS V R titration curves, DESY, 4s exposure, […] 10^13 photons, HisBP 10 µM
[9] = K D fitted to SAXS V R titration curves, DESY, 4s exposure, […] 10^13 photons, HisBP 20 µM
[10] = K D fitted to SAXS V R titration curves, DESY, 4s exposure, […] 10^13 photons, HisBP 40 µM
[11] = K D fitted to SAXS V R titration curves, DESY, 4s exposure, […] 10^13 photons, HisBP 80 µM
[12] = K D fitted to SAXS V R titration curves, Diamond, 40s exposure, […] 10^14 photons, HisBP 10 µM
[13] = K D fitted to SAXS V R titration curves, Diamond, 40s exposure, […] 10^14 photons, HisBP 20 µM
[14] = K D fitted to SAXS V R titration curves, Diamond, 40s exposure, […] 10^14 photons, HisBP 40 µM
[15] = K D fitted to SAXS V R titration curves, Diamond, 40s exposure, […] 10^14 photons, HisBP 80 µM
[16] = K D fitted to SAXS V R titration curves, ESRF, 5s exposure, 3.0 × 10^12 photons, HisBP 160 µM
[17] = KD fitted to SAXS Rg curves, AustSynch, 20s exposure, HisBP […] µM
[18] = KD fitted to SAXS Rg curves, AustSynch, 20s exposure, HisBP 76 µM
[19] = KD fitted to SAXS Rg curves, DESY, 4s exposure, HisBP 10 µM
[20] = KD fitted to SAXS Rg curves, DESY, 4s exposure, HisBP 20 µM
[21] = KD fitted to SAXS Rg curves, DESY, 4s exposure, HisBP 40 µM
[22] = KD fitted to SAXS Rg curves, DESY, 4s exposure, HisBP 80 µM
[23] = KD fitted to SAXS Rg curves, ESRF, 5s exposure, HisBP 160 µM
[24] = KD fitted to SAXS Vc curves, AustSynch, 20s exposure, HisBP […] µM
[25] = KD fitted to SAXS Vc curves, AustSynch, 20s exposure, HisBP 76 µM
[26] = KD fitted to SAXS Vc curves, DESY, 4s exposure, HisBP 40 µM
[27] = KD fitted to SAXS Vc curves, DESY, 4s exposure, HisBP 80 µM
[28] = KD fitted to SAXS Vc curves, ESRF, 5s exposure, HisBP 160 µM
[29] = KD fitted to SAXS χlin. curves, AustSynch, 20s exposure, HisBP […] µM
[30] = KD fitted to SAXS χlin. curves, AustSynch, 20s exposure, HisBP 76 µM
[31] = KD fitted to SAXS χlin. curves, DESY, 4s exposure, HisBP 10 µM
[32] = KD fitted to SAXS χlin. curves, DESY, 4s exposure, HisBP 20 µM
[33] = KD fitted to SAXS χlin. curves, DESY, 4s exposure, HisBP 40 µM
[34] = KD fitted to SAXS χlin. curves, DESY, 4s exposure, HisBP 80 µM
[35] = KD fitted to SAXS χlin. curves, Diamond, 40s exposure, HisBP 40 µM
[36] = KD fitted to SAXS χlin. curves, Diamond, 40s exposure, HisBP 80 µM
[37] = KD fitted to SAXS χlin. curves, ESRF, 5s exposure, HisBP 152 µM

T1 sequence (P37902 28-302): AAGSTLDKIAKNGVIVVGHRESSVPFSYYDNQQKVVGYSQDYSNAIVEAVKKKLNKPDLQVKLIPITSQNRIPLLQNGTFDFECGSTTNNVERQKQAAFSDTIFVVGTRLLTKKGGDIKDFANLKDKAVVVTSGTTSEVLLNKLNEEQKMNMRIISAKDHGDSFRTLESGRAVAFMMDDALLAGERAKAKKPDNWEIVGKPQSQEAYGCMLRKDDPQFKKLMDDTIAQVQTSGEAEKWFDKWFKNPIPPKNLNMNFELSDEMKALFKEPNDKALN
T2 sequence (P0AEU0 23-260): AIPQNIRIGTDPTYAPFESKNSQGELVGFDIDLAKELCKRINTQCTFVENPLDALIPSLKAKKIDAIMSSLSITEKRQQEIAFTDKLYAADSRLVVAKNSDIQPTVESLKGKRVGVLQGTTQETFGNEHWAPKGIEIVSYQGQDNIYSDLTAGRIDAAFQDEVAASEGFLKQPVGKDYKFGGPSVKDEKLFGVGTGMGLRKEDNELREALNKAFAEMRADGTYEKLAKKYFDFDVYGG

SAXS R g Exp. (saturated) ([1]; Glu:DEBP, ligand-excess conditions): 20.6 ± 1.3 Å | SAXS ΔR g ([1]; Glu:DEBP, saturated versus apo): −2.6 Å
SMILES: N[C@@H](CCC(=O)O)C(=O)O [Glu, glutamate]
Kd (DEBP): 0.334 ± 0.12 µM

SMILES: NC(=O)CC[C@H](N)C(=O)O [Gln, glutamine]
Kd (GlnBP): 0.106 ± 0.065 µM

SMILES: NCCC[C@H](N)C(=O)O [Orn, ornithine]
Kd (HisBP): 72 ± 4 µM

SMILES: N[C@@H](CC(=O)O)C(=O)O [Asp, aspartate]
Kd (DEBP): 1.73 ± 0.49 µM

SMILES: NC(=O)C[C@H](N)C(=O)O [Asn]
binding suggested by SAXS titrations ([1]; DEBP, 2 mg ml^−1, 10^12 photons): unexpected binding

SMILES: NCCCC[C@H](N)C(=O)O [Lys, lysine]
Kd (HisBP): 19.5 ± 6 µM | Kd [2, 5]: 110 ± 10 µM | Kd [2, 6]: 32 ± 4.6 µM | Kd [2, 7]: 95 ± 11 µM | Kd [2, 8]: 0.0023 ± 0.0016 µM | Kd [2, 9]: 61 ± 6.4 µM | Kd [2, 10]: 720 ± 350 µM | Kd [2, 11]: 58 ± 7.5 µM | Kd [2, 12]: 230 ± 200 µM | Kd [2, 13]: 47 ± 3.6 µM | Kd [2, 14]: 320 ± 210 µM | Kd [2, 15]: 89 ± 9.6 µM | Kd [2, 16]: 49 ± 4.1 µM | Kd ([2]; KD fitted to SAXS Rg curves, AustSynch, 20s exposure, HisBP 19 µM): 460 ± 230 µM | Kd [2, 17]: 340 ± 120 µM | Kd [2, 18]: 0.031 ± 0.025 µM | Kd [2, 19]: 1.3 ± 2.5 µM | Kd [2, 20]: 38 ± 28 µM | Kd [2, 21]: 0.086 µM | Kd [2, 22]: 36 ± 42 µM | Kd ([2]; KD fitted to SAXS Rg curves, Diamond, 40s exposure, HisBP 40 µM): 1500 ± 3200 µM | Kd [2, 23]: 71 ± 8.9 µM | Kd [2, 24]: 450 ± 510 µM | Kd [2, 25]: 9.5 µM | Kd ([2]; KD fitted to SAXS Vc curves, DESY, 4s exposure, HisBP 10 µM): 0.18 µM | Kd ([2]; KD fitted to SAXS Vc curves, DESY, 4s exposure, HisBP 20 µM): 44 µM | Kd [2, 26]: 2.8 µM | Kd [2, 27]: 9 µM | Kd ([2]; KD fitted to SAXS Vc curves, Diamond, 40s exposure, HisBP 40 µM): 57 µM | Kd [2, 28]: 280 ± 450 µM | Kd [2, 29]: 150 ± 46 µM | Kd [2, 30]: 130 ± 14 µM | Kd [2, 31]: 0.46 ± 0.5 µM | Kd [2, 32]: 2.1 ± 3.2 µM | Kd [2, 33]: 160 ± 230 µM | Kd [2, 34]: 150 ± 40 µM | Kd [2, 35]: 4500 ± 3400 µM | Kd [2, 36]: 260 ± 150 µM | Kd [2, 37]: 180 ± 15 µM | Kd [3]: 62 ± 11 µM

SMILES: N[C@@H](Cc1c[nH]cn1)C(=O)O [His, histidine]
SAXS R g Exp. (saturated) ([4]; ligand-excess conditions): 18.3 ± 1.0 Å | SAXS ΔR g ([4]; saturated versus apo): −1.3 Å | Kd (HisBP): 0.064 ± 0.01 µM | Kd [2, 5]: 0.062 ± 0.028 µM | Kd [2, 6]: 1.5 ± 0.7 µM | Kd [2, 7]: 3.6 ± 0.74 µM | Kd [2, 8]: 84 ± 68 µM | Kd [2, 9]: 1 ± 0.19 µM | Kd [2, 10]: 3.7 ± 0.58 µM | Kd [2, 11]: 6.4 ± 1.1 µM | Kd [2, 12]: 0.0014 ± 0.00092 µM | Kd [2, 13]: 0.0051 ± 0.0041 µM | Kd [2, 14]: 0.013 ± 0.011 µM | Kd [2, 15]: 1.3 ± 0.5 µM | Kd ([2]; K D fitted to SAXS V R titration curves, ESRF, 5s exposure, 3.0 × 10^12 photons, HisBP […] µM): 0.24 ± 0.14 µM | Kd [2, 16]: 0.37 ± 0.47 µM | Kd [2, 17]: 6.3 ± 0.87 µM | Kd [2, 18]: 1.7 ± 0.87 µM | Kd [2, 19]: 100 ± 140 µM | Kd [2, 20]: 0.0027 ± 0.0047 µM | Kd [2, 21]: 4.2 ± 2.4 µM | Kd [2, 22]: 8.2 ± 1.8 µM | Kd ([2]; KD fitted to SAXS Rg curves, Diamond, 40s exposure, HisBP 10 µM): 0.018 µM | Kd ([2]; KD fitted to SAXS Rg curves, Diamond, 40s exposure, HisBP 20 µM): 0.015 µM | Kd ([2]; KD fitted to SAXS Rg curves, Diamond, 40s exposure, HisBP 80 µM): 2.2 ± 3.1 µM | Kd ([2]; KD fitted to SAXS Rg curves, ESRF, 5s exposure, HisBP […] µM): 0.16 µM | Kd [2, 23]: 0.61 ± 0.12 µM | Kd ([2]; KD fitted to SAXS Vc curves, AustSynch, 20s exposure, HisBP 19 µM): 0.16 µM | Kd [2, 24]: 5.3 ± 3.7 µM | Kd [2, 25]: 25 ± 8.1 µM | Kd [2, 26]: 19 µM | Kd [2, 27]: 5.8 µM | Kd ([2]; KD fitted to SAXS Vc curves, Diamond, 40s exposure, HisBP 80 µM): 9.9 µM | Kd ([2]; KD fitted to SAXS Vc curves, ESRF, 5s exposure, HisBP 7.6 µM): 2.8 µM | Kd ([2]; KD fitted to SAXS Vc curves, ESRF, 5s exposure, HisBP […] µM): 200 ± 490 µM | Kd [2, 28]: 0.88 ± 2.4 µM | Kd ([2]; KD fitted to SAXS χlin. curves, AustSynch, 20s exposure, HisBP 19 µM): 1.2 µM | Kd [2, 29]: 4.5 ± 1.5 µM | Kd [2, 30]: 5.1 ± 0.75 µM | Kd [2, 31]: 4.4 ± 2.8 µM | Kd [2, 32]: 2.9 ± 1.5 µM | Kd [2, 33]: 13 ± 3.5 µM | Kd [2, 34]: 15 ± 1.9 µM | Kd ([2]; KD fitted to SAXS χlin. curves, Diamond, 40s exposure, HisBP 20 µM): 0.07 µM | Kd [2, 35]: 4.3 ± 4.7 µM | Kd [2, 36]: 20 ± 3.4 µM | Kd ([2]; KD fitted to SAXS χlin. curves, ESRF, 5s exposure, HisBP 7.6 µM): 0.5 µM | Kd ([2]; KD fitted to SAXS χlin. curves, ESRF, 5s exposure, HisBP […] µM): 0.099 µM | Kd [2, 37]: 0.32 ± 0.051 µM | Kd [3]: 0.048 ± 0.0052 µM
